One series relates to sarcoma 180. Description: Anti-tumour activity in mice, sarcoma 180. The settings on record: graftable tumours of mice, solid form of sarcoma 180.
In a further series the test system is leucaemia L1210. Description: Anti-tumour activity in mice, leucaemia L1210. The settings on record: graftable tumours of mice, leucaemia L 1210.
The nature of series [1]: Stability to acid treatment of the fermentation broth. The settings on record: 10° to 75° C., 48 hours to 30 minutes. The series is classed as physicochemical. The protocol:
When desired, the fermentation broth can, before the extraction procedures, be treated with an acid at a temperature between 10° and 75° C. for a period of from 48 hours to 30 minutes, the length of time varying inversely with the temperature, so as to enrich the antibiotic 9865 R.P. with daunorubicin. […] For acidification of the fermentation broth inorganic acids (hydrochloric, phosphoric or sulphuric acid) or organic acids (acetic or oxalic acid etc.) are suitable at various concentrations, but preferably hydrochloric acid or oxalic acid is used at concentrations of between 0.01N and 1N. The hydrolysis is preferably carried out for a period of from 15 hours to 1 hour at a temperature of from 20 C. to 50° C., the length of time varying inversely with the temperature.

Series [2] concerns acute lymphoblastic and myeloblastic leucaemias. The series can be described thus: Activity in human therapy. The class given is in vivo. The settings on record: intravenous, daily doses between 0.1 and 2 mg./kg., adult. The protocol: In human therapy 20,798 R.P. is active, particularly against acute lymphoblastic and myeloblastic leucaemias, when administered intravenously at daily doses of between 0.1 and 2 mg./kg. for an adult; a composition for injection for example, consists of a solution of 0.1 mg./cc. of active substance in physiological serum.

On to `COc1cccc2c1C(=O)c1c(O)c3c(c(O)c1C2=O)CC(O)(C(C)O)CC3OC1CC(N)C(O)C(C)O1` (stereo not shown) [20,798 R.P.], for which the anti-tumour activity result in the series on sarcoma 180 and with leucaemia L1210 was “particularly active” in each case. The “hydrolysis on acid treatment” value in series [1] is given as “not hydrolysed”. In addition, the “activity in human therapy” value in series [2] is “active”.

The values are drawn from patent US3987167A, “Antibiotic 20,798 R.P” (Rhone-Poulenc S.A., priority 1968, dated 1976).
